Data on eight molecules can be found in patent US11597724B2, “Herbicidally active 3-phenylisoxazoline-5-carboxamides of tetrahydro and dihydrofuran carboxylic acids and esters” (Bayer Aktiengesellschaft, priority 2017, dated 2023).

Format in all cases: in vivo
One experiment deals with Lolium rigidum. Put plainly: Post-emergence herbicidal activity against LOLRI. Particulars: Lolium rigidum, 504 h, dosage 320 g/ha, rated about 3 weeks after treatment. Put shortly: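 Greenhouse-grown plants sprayed post-emergence at the one-leaf stage, 2 to 3 weeks after sowing, with WP or EC formulations plus 0.5% additive at 600 l/ha water. Activity rated visually after about 3 weeks versus untreated controls (100% = plants dead, 0% = like control).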

Experiment [1] relates to Veronica persica. Put plainly: Pre-emergence herbicidal activity against VERPE. The conditions noted are these: Veronica persica, 504 h, dosage 80 g/ha. The text has this: (§1) 1. Pre-Emergence Herbicidal Action and Crop Plant Compatibility Seeds of monocotyledonous and dicotyledonous weed plants and crop plants are placed in plastic or wood fiber pots and covered with soil. The compounds of the invention, formulated in the form of wettable powders (WP) or as emulsion concentrates (EC), are then applied onto the surface of the covering soil as aqueous suspension or emulsion with addition of 0.5% additive at a water application rate of 600 l/ha (converted). After the treatment, the pots are placed in a greenhouse and kept under good growth conditions for the trial plants. After about 3 weeks, the effect of the preparations is scored visually in comparison with untreated controls as percentages. For example, 100% activity=the plants have died, 0% activity=like control plants. STEME: Stellaria media VERPE: Veronica persica

Experiment [2] concerns Veronica persica. The experiment is described as follows: Post-emergence herbicidal activity against VERPE. Particulars: Veronica persica, 504 h, dosage 320 g/ha. The gist of the method:
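Greenhouse plants treated at one-leaf stage, 2–3 weeks after sowing, by spraying WP or EC formulations with 0.5% additive at 600 l/ha water. Visual rating about 3 weeks later versus untreated controls (100% = plants dead, 0% = like controls).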

Another experiment deals with Setaria viridis. The experiment is described as follows: Pre-emergence herbicidal activity against SETVI. The conditions noted are these: Setaria viridis, 504 h, dosage 80 g/ha.
Source text: as §1, with “POLCO: Polygonum convolvulus SETVI: Setaria viridis” for “STEME: Stellaria media VERPE: Veronica persica”

The test system of another experiment is Polygonum convolvulus. The experiment is described as follows: Pre-emergence herbicidal activity against POLCO. Particulars: Fallopia convolvulus, 504 h, dosage 80 g/ha.
Source text: as §1, with “POLCO: Polygonum convolvulus SETVI: Setaria viridis” for “STEME: Stellaria media VERPE: Veronica persica”

For another experiment, the system named is Alopecurus myosuroides. Put plainly: Post-emergence herbicidal activity against ALOMY. Particulars: Alopecurus myosuroides, 504 h, dosage 320 g/ha, rated about 3 weeks after treatment. Put shortly: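 Greenhouse-grown plants treated at one-leaf stage, 2 to 3 weeks after sowing, with WP or EC formulations sprayed as aqueous suspension/emulsion plus 0.5% additive at 600 l/ha. Activity rated visually about 3 weeks later versus untreated controls (100% = plants dead, 0% = like control).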

SMILES strings stand for the structures.

Regarding `CC(C)(C)OC(=O)[C@H]1C[C@@H](NC(=O)C2(C)CC(c3cccc(F)c3)=NO2)CO1` (mixture of isomers) [I-33, tert-butyl cis-4-[[(5RS)-3-(3-fluorophenyl)-5-methyl-4H-isoxazole-5-carbonyl]amino]tetrahydrofuran-2-carboxylate], the pest or weed control at 320 g/ha with Lolium rigidum was found to be 100%; in the experiment with Veronica persica [2] it was 80%; with Alopecurus myosuroides, 100%. Besides, the pest or weed control at 80 g/ha in the experiment with Veronica persica [1] turned out to be 100%; with Setaria viridis, 100%; in the experiment on Polygonum convolvulus it was 90%.
On to `CC(C)OC(=O)[C@H]1C[C@@H](NC(=O)C2(C)CC(c3cccc(F)c3)=NO2)CO1` (mixture of isomers) [I-32, isopropyl cis-4-[[(5RS)-3-(3-fluorophenyl)-5-methyl-4H-isoxazole-5-carbonyl]amino]tetrahydrofuran-2-carboxylate], for which the pest or weed control at 320 g/ha came out at 100% in the experiment on Lolium rigidum, 80% in the experiment with Veronica persica [2] and 90% in the experiment on Alopecurus myosuroides. The pest or weed control at 80 g/ha in the experiment on Setaria viridis was found to be 100%; in the experiment on Polygonum convolvulus, 90%.
Turning to `COC(=O)C1COCC1NC(=O)C1(C)CC(c2cc(F)cc(F)c2)=NO1` (centres unmarked) [I-19, methyl 4-[[3-(3,5-difluorophenyl)-5-methyl-4H-isoxazole-5-carbonyl]amino]tetrahydrofuran-3-carboxylate], the pest or weed control at 80 g/ha in the experiment on Veronica persica [1] and with Polygonum convolvulus was 90% in each case. The pest or weed control at 320 g/ha was found to be 80% in the experiment with Veronica persica [2] and 90% in the experiment with Alopecurus myosuroides.
On to `COC(=O)[C@H]1C[C@@H](NC(=O)C2(OC)CC(c3cc(C)cc(Br)c3)=NO2)CO1` (relative stereo) [I-08, methyl cis-4-[[3-(3-bromo-5-methylphenyl)-5-methoxy-4H-isoxazole-5-carbonyl]amino]tetrahydrofuran-2-carboxylate], for which the pest or weed control at 80 g/ha with Veronica persica [1] came to 90%; in the experiment with Polygonum convolvulus, 80%. In the experiment with Veronica persica [2], this molecule gave a pest or weed control at 320 g/ha of 80%.
For the molecule `CCOC(=O)[C@H]1C[C@@H](NC(=O)C2(C)CC(c3cccc(F)c3)=NO2)CO1` (mixture of isomers) [I-30, ethyl cis-4-[[(5RS)-3-(3-fluorophenyl)-5-methyl-4H-isoxazole-5-carbonyl]amino]tetrahydrofuran-2-carboxylate], the pest or weed control at 320 g/ha was found to be 100% in the experiment on Lolium rigidum, 80% in the experiment with Veronica persica [2] and 100% in the experiment with Alopecurus myosuroides. The pest or weed control at 80 g/ha is 100% with Setaria viridis and 90% in the experiment with Polygonum convolvulus.
On to `COC(=O)[C@H]1C[C@@H](NC(=O)C2(OC)CC(c3cc(F)cc(F)c3)=NO2)CO1` (relative stereo) [I-05, methyl cis-4-[[3-(3,5-difluorophenyl)-5-methoxy-4H-isoxazole-5-carbonyl]amino]tetrahydrofuran-2-carboxylate], for which the pest or weed control at 320 g/ha turned out to be 80% in the experiment with Veronica persica [2] and 90% in the experiment with Alopecurus myosuroides. Also, the pest or weed control at 80 g/ha with Setaria viridis was found to be 90%; with Polygonum convolvulus it was 80%.
With `COC(=O)C1COCC1NC(=O)C1(OC)CC(c2cc(Cl)cc(Cl)c2)=NO1` (centres unmarked) [I-29, methyl 4-[[3-(3,5-dichlorophenyl)-5-methoxy-4H-isoxazole-5-carbonyl]amino]tetrahydrofuran-3-carboxylate], the pest or weed control at 80 g/ha with Veronica persica [1] and in the experiment on Polygonum convolvulus was 100% throughout. Moreover, the pest or weed control at 320 g/ha in the experiment on Veronica persica [2] and in the experiment on Alopecurus myosuroides was 90% throughout.
Regarding `COC(=O)C1COCC1NC(=O)C1(OC)CC(c2cc(F)cc(F)c2)=NO1` (centres unmarked) [I-27, methyl 4-[[3-(3,5-difluorophenyl)-5-methoxy-4H-isoxazole-5-carbonyl]amino]tetrahydrofuran-3-carboxylate], the pest or weed control at 80 g/ha with Veronica persica [1] came out at 90%; in the experiment on Polygonum convolvulus, 80%. Moreover, the values for the pest or weed control at 320 g/ha with Veronica persica [2] and in the experiment on Alopecurus myosuroides were 80% and 90%, respectively.
